Measurements published in patent US10750742B2, “Pesticidally active pyrazole derivatives” (SYNGENTA PARTICIPATIONS AG, priority 2015, dated 2020).
Where two headings read alike, the source gives them in different places.

Tests used:
Format in all cases: in vivo
[1] = system: Tetranychus urticae; assay: Tetranychus urticae (two-spotted spider mite), bean leaf disc test; conditions: foliar, 192 h, read-out: control (mortality on mixed population, mobile stages)
Description: Tetranychus urticae (Two-Spotted Spider Mite):
Bean leaf discs on agar in 24-well microtiter plates were sprayed with aqueous test solutions prepared from 10′000 ppm DMSO stock solutions. After drying the leaf discs were infested with a mite population of mixed ages. The samples were assessed for mortality on mixed population (mobile stages) 8 days after infestation.

[2] = system: Thrips tabaci; assay: Thrips tabaci (onion thrips), sunflower leaf disc test; conditions: foliar, 144 h, read-out: control (mortality)
Description: Thrips tabaci (Onion Thrips):
Sunflower leaf discs were placed on agar in 24-well microtiter plates and sprayed with aqueous test solutions prepared from 10′000 ppm DMSO stock solutions. After drying the leaf discs were infested with a thrips population of mixed ages. The samples were assessed for mortality 6 days after infestation.

[3] = system: Diabrotica balteata; assay: Diabrotica balteata (corn root worm), maize sprout test; conditions: 96 h, read-out: control (mortality and growth inhibition)
Description: Diabrotica balteata, (Corn Root Worm)
Maize sprouts, placed on an agar layer in 24-well microtiter plates were treated with aqueous test solutions prepared from 10′000 ppm DMSO stock solutions by spraying. After drying, the plates were infested with L2 larvae (6 to 10 per well). The samples were assessed for mortality and growth inhibition in comparison to untreated samples 4 days after infestation.

[4] = system: Spodoptera littoralis; assay: Spodoptera littoralis (Egyptian cotton leaf worm), cotton leaf disc spray test; conditions: foliar, 72 h, read-out: control (at least one of mortality, anti-feedant effect, growth inhibition); for percent control (mortality, anti-feedant effect or growth inhibition) at 200 ppm: application rate 200 ppm, L1 larvae, 3 days after infestation
Description: Spodoptera littoralis (Egyptian Cotton Leaf Worm)
Cotton leaf discs were placed on agar in 24-well microtiter plates and sprayed with aqueous test solutions prepared from 10′000 ppm DMSO stock solutions. After drying the leaf discs were infested with five L1 larvae. The samples were assessed for mortality, anti-feedant effect, and growth inhibition in comparison to untreated samples 3 days after infestation. Control of Spodoptera littoralis by a test sample is when at least one of mortality, anti-feedant effect, and growth inhibition is higher than the untreated sample.

[5] = system: Plutella xylostella; assay: Plutella xylostella (diamond back moth), artificial diet test; conditions: 120 h, read-out: control (mortality and growth inhibition)
Description: Plutella xylostella (Diamond Back Moth):
24-well microtiter plates with artificial diet were treated with aqueous test solutions prepared from 10′000 ppm DMSO stock solutions by pipetting. After drying, the plates were infested with L2 larvae (10 to 15 per well). The samples were assessed for mortality and growth inhibition in comparison to untreated samples 5 days after infestation.

[6] = system: Euschistus heros; assay: Euschistus heros (neotropical brown stink bug), soybean leaf test; conditions: 120 h, read-out: effect in at least one of the two categories (mortality or growth inhibition); for percent effect (mortality or growth inhibition) at 200 ppm: application rate 200 ppm, N2 nymphs, 5 days after infestation
Description: Euschistus heros (Neotropical Brown Stink Bug):
Soybean leaves on agar in 24-well microtiter plates were sprayed with aqueous test solutions prepared from 10′000 ppm DMSO stock solutions. After drying the leaves were infested with N2 nymphs. The samples were assessed for mortality and growth inhibition in comparison to untreated samples 5 days after infestation.

[7] = system: Myzus persicae; assay: Myzus persicae (green peach aphid), sucrose solution / Parafilm test; conditions: 120 h
Excerpt: Myzus persicae (Green Peach Aphid):
Test compounds were applied by pipette into 24 well plates and mixed with Sucrose solution. Application rate: 12.5 ppm. The plates were closed with a stretched parafilm. A plastic stencil with 24 holes is placed onto the plate and infested pea seedlings were placed directly on the Parafilm. The infested plate is closed with a gel blotting paper and another plastic stencil and then turned upside down. 5 days after infestation the samples were checked on mortality.

[8] = application rate 200 ppm, 8 days after infestation
[9] = application rate 200 ppm, mixed ages, 6 days after infestation
[10] = application rate 200 ppm, L2 larvae, 4 days after infestation
[11] = application rate 200 ppm, L2 larvae, 5 days after infestation
[12] = test rate of 12 ppm, sucrose solution, 5 days after infestation, read-out: mortality

Cn1nc(OC(F)(F)C(F)C(F)(F)F)c(C(F)(F)F)c1-n1cc(-c2ccc(Cl)c(C(=O)N(/C(F)=C(\F)C(F)(F)F)C3(C#N)CC3)c2)cn1 (stereo not drawn) [compound 7]
≥ 80%: mortality at 200 ppm [1, 8] | mortality at 200 ppm [2, 9] | mortality at 200 ppm [3, 10] | percent control (mortality, anti-feedant effect or growth inhibition) at 200 ppm [4] | mortality at 200 ppm [5, 11]

Cn1nc(OC(F)(F)C(F)C(F)(F)F)c(C(F)(F)F)c1-n1cc(-c2cccc(C(=O)NC3CC3)c2F)cn1 (stereo not drawn) [compound 68]
≥ 80%: mortality at 200 ppm [1, 8] | mortality at 200 ppm [2, 9] | mortality at 200 ppm [3, 10] | percent control (mortality, anti-feedant effect or growth inhibition) at 200 ppm [4]

Cn1nc(OS(=O)(=O)C(F)(F)C(F)(F)C(F)(F)C(F)(F)F)c(C(F)(F)F)c1-n1cc(-c2ccc(Cl)c(C(=O)NC3(C#N)CC3)c2)cn1 [compound 36]
≥ 80%: mortality at 200 ppm [2] | percent control (mortality or growth inhibition) at 200 ppm [6] | mortality at 200 ppm [3] | mortality at 200 ppm [5] | mortality at 12 ppm [7]

COc1nn(C)c(-n2cc(-c3ccc(Cl)c(C(=O)N(C)C4(C#N)CC4)c3)cn2)c1C(F)(F)F [compound 56]
≥ 80%: mortality at 200 ppm [3, 10] | mortality at 200 ppm [5, 11] | mortality at 12 ppm [7, 12]

Cn1nc(O/C(=C(/F)C(F)(F)F)C(F)(F)F)c(C(F)(F)F)c1-n1cc(-c2ccc(Cl)c(C(=O)NC3(C#N)CC3)c2)cn1 [compound 42]
≥ 80%: percent effect (mortality or growth inhibition) at 200 ppm [6] | mortality at 200 ppm [3, 10] | percent control (mortality, anti-feedant effect or growth inhibition) at 200 ppm [4] | mortality at 200 ppm [5, 11]

Cn1nc(O/C(=C\F)C(F)(F)F)c(C(F)(F)F)c1-n1cc(-c2ccc(Cl)c(C(=O)NC3(C#N)CC3)c2)cn1 [compound 49]
≥ 80%: mortality at 200 ppm [1, 8] | percent effect (mortality or growth inhibition) at 200 ppm [6] | percent control (mortality, anti-feedant effect or growth inhibition) at 200 ppm [4] | mortality at 12 ppm [7, 12]

Cn1nc(SCCC(F)(F)C(F)(F)C(F)(F)C(F)(F)C(F)(F)C(F)(F)F)c(Br)c1-n1cc(-c2ccc(Cl)c(C(=O)NC3CC3)c2)cn1 [compound 54]
≥ 80%: mortality at 200 ppm [4] | mortality at 200 ppm [5]

Cn1nc(OCCOC(F)(F)F)c(C(F)(F)F)c1-n1cc(-c2ccc(Cl)c(C(=O)NC3(C#N)CC3)c2)cn1 [compound 28]
≥ 80%: percent effect (mortality or growth inhibition) at 200 ppm [6] | mortality at 12 ppm [7, 12]

Cn1nc(OCCCCC(F)=C(F)F)c(C(F)(F)F)c1-n1cc(-c2ccc(Cl)c(C(=O)NC3CC3)c2)cn1 [compound 29]
≥ 80%: mortality at 200 ppm [3, 10]

Cn1nc(O/C(F)=C/C(F)(F)F)c(C(F)(F)F)c1-n1cc(-c2ccc(Cl)c(C(=O)NC3(C#N)CC3)c2)cn1 [compound 48]
≥ 80%: mortality at 200 ppm [1, 8] | mortality at 200 ppm [2, 9] | percent effect (mortality or growth inhibition) at 200 ppm [6] | mortality at 200 ppm [3, 10] | percent control (mortality, anti-feedant effect or growth inhibition) at 200 ppm [4] | mortality at 200 ppm [5, 11] | mortality at 12 ppm [7, 12]

Cn1nc(OC(Cl)(Cl)C(Cl)=C(Cl)Cl)c(C(F)(F)F)c1-n1cc(-c2ccc(Cl)c(C(=O)NC3CC3)c2)cn1 [compound 67]
≥ 80%: mortality at 200 ppm [2, 9] | mortality at 200 ppm [3, 10]

Cn1nc(OC(F)=C(F)C(F)(F)F)c(C(F)(F)F)c1-n1cc(-c2ccc(Cl)c(C(=O)NC3CC3)c2)cn1 [compound 53]
≥ 80%: mortality at 200 ppm [1, 8] | mortality at 200 ppm [2, 9] | percent effect (mortality or growth inhibition) at 200 ppm [6] | mortality at 200 ppm [3, 10] | percent control (mortality, anti-feedant effect or growth inhibition) at 200 ppm [4] | mortality at 200 ppm [5, 11] | mortality at 12 ppm [7, 12]

Cn1nc(OCCCCC(F)=C(F)F)c(C(F)(F)F)c1-n1cc(-c2ccc(Cl)c(C(=O)NC3(C#N)CC3)c2)cn1 [compound 21]
≥ 80%: mortality at 200 ppm [1, 8] | percent effect (mortality or growth inhibition) at 200 ppm [6]

CCNC(=O)c1cc(-c2cnn(-c3c(C(F)(F)F)c(OC(F)(F)C(F)C(F)(F)F)nn3C)c2)ccc1Cl (stereo not drawn) [compound 9]
≥ 80%: mortality at 200 ppm [1, 8] | mortality at 200 ppm [2, 9] | percent effect (mortality or growth inhibition) at 200 ppm [6] | mortality at 200 ppm [3, 10] | percent control (mortality, anti-feedant effect or growth inhibition) at 200 ppm [4] | mortality at 200 ppm [5, 11] | mortality at 12 ppm [7, 12]

Cn1nc(OCC(F)(F)C(F)(F)C(F)(F)C(F)(F)C(F)(F)C(F)(F)C(F)(F)F)c(C(F)(F)F)c1-n1cc(-c2ccc(Cl)c(C(=O)NC3(C#N)CC3)c2)cn1 [compound 22]
≥ 80%: mortality at 200 ppm [3] | mortality at 200 ppm [4] | mortality at 200 ppm [5]

Cn1nc(OCC(F)(F)C(F)(F)C(F)(F)C(F)(F)C(F)(F)C(F)(F)C(F)(F)F)c(C(F)(F)F)c1-n1cc(-c2ccc(Cl)c(C(=O)NC3CC3)c2)cn1 [compound 31]
≥ 80%: mortality at 200 ppm [5]

Cn1nc(OC(F)(F)C(F)=C(C(F)(F)F)C(F)(F)F)c(C(F)(F)F)c1-n1cc(-c2ccc(Cl)c(C(=O)NC3(C#N)CC3)c2)cn1 [compound 14]
≥ 80%: mortality at 200 ppm [1, 8]

Cn1nc(OS(=O)(=O)C(F)(F)C(F)(F)C(F)(F)C(F)(F)F)c(C(F)(F)F)c1-n1cc(-c2ccc(Cl)c(C(=O)NC3CC3)c2)cn1 [compound 37]
≥ 80%: mortality at 200 ppm [2] | percent control (mortality or growth inhibition) at 200 ppm [6] | mortality at 200 ppm [3] | mortality at 200 ppm [5] | mortality at 12 ppm [7]

Cn1nc(SCC(F)(F)C(F)F)c(Br)c1-n1cc(-c2ccc(Cl)c(C(=O)NC3CC3)c2)cn1 [compound 57]
≥ 80%: percent control (mortality, anti-feedant effect or growth inhibition) at 200 ppm [4]

Cn1nc(OC(F)(F)C(F)C(F)(F)F)c(C(F)(F)F)c1-n1cc(-c2ccc(Cl)c(C(=O)NCC#N)c2)cn1 (stereo not drawn) [compound 10]
≥ 80%: mortality at 200 ppm [1, 8] | mortality at 200 ppm [2, 9] | mortality at 200 ppm [3, 10] | percent control (mortality, anti-feedant effect or growth inhibition) at 200 ppm [4] | mortality at 200 ppm [5, 11] | mortality at 12 ppm [7, 12]

Cn1nc(OC(F)(F)C(F)(F)C(F)(F)C(F)(F)C(F)(F)C(F)(F)F)c(C(F)(F)F)c1-n1cc(-c2ccc(Cl)c(C(=O)NC3(C#N)CC3)c2)cn1 [compound 38]
≥ 80%: mortality at 200 ppm [2] | percent control (mortality or growth inhibition) at 200 ppm [6] | mortality at 200 ppm [3] | mortality at 200 ppm [4] | mortality at 200 ppm [5]

Cn1nc(OCCC(F)=C(F)F)c(C(F)(F)F)c1-n1cc(-c2ccc(Cl)c(C(=O)NC3(C#N)CC3)c2)cn1 [compound 46]
≥ 80%: mortality at 200 ppm [2, 9] | percent control (mortality, anti-feedant effect or growth inhibition) at 200 ppm [4] | mortality at 200 ppm [5, 11]

Cn1nc(OC(F)(F)C(F)(F)C(F)(F)C(F)(F)C(F)(F)C(F)(F)F)c(C(F)(F)F)c1-n1cc(-c2ccc(Cl)c(C(=O)NC3CC3)c2)cn1 [compound 39]
≥ 80%: mortality at 200 ppm [1] | mortality at 200 ppm [2] | percent control (mortality or growth inhibition) at 200 ppm [6] | mortality at 200 ppm [3] | mortality at 200 ppm [4] | mortality at 200 ppm [5]

Cn1nc(OC(F)=C(F)C(F)(F)F)c(C(F)(F)F)c1-n1cc(-c2ccc(Cl)c(C(=O)NC3(C#N)CC3)c2)cn1 [compound 52]
≥ 80%: mortality at 200 ppm [1, 8] | mortality at 200 ppm [2, 9] | percent effect (mortality or growth inhibition) at 200 ppm [6] | mortality at 12 ppm [7, 12]

Cn1nc(OS(=O)(=O)C(F)(F)F)c(C(F)(F)F)c1-n1cc(-c2ccc(Cl)c(C(=O)NC3(C#N)CC3)c2)cn1 [compound 16]
≥ 80%: mortality at 200 ppm [1, 8] | mortality at 200 ppm [2, 9] | percent effect (mortality or growth inhibition) at 200 ppm [6] | mortality at 200 ppm [3, 10] | percent control (mortality, anti-feedant effect or growth inhibition) at 200 ppm [4] | mortality at 200 ppm [5, 11]
